What was measured:
Assay in all cases: Drug sensitivity of breast cancer cell line to lapatinib
Assay type in all cases: cell-based, human
JIMT1 = details: JIMT1, ERBB2 amplified
Text: (§1) To complement this functional viability profiling, we also characterised the breast tumor panel using transcript microarrays, array-based comparative genomic hybridisation (aCGH), drug sensitivity for a small number of targeted agents, as well as gene mutation data.

MDAMB453 = details: MDAMB453, ERBB2 amplified
Text: as §1

VP229 = details: VP229, ERBB2 amplified
Text: as §1

HCC202 = details: HCC202, ERBB2 amplified
Text: as §1

BT474 = details: BT474, ERBB2 amplified
Text: as §1

SKBR3 = details: SKBR3, ERBB2 amplified
Text: as §1

## CS(=O)(=O)CCNCc1ccc(-c2ccc3ncnc(Nc4ccc(OCc5cccc(F)c5)c(Cl)c4)c3c2)o1 [lapatinib]
JIMT1
  sensitivity to lapatinib treatment: resistant
MDAMB453
  sensitivity to lapatinib treatment: resistant
VP229
  sensitivity to lapatinib treatment: resistant
HCC202
  sensitivity to lapatinib treatment: sensitive
BT474
  sensitivity to lapatinib treatment: sensitive
SKBR3
  sensitivity to lapatinib treatment: sensitive
